Measured values: ChEMBL document CHEMBL1135198, “Structure-activity relationships of non-imidazole H(3) receptor ligands. Part 1” (Bioorg Med Chem Lett, 2002)

Columns and labels:
Histamine H1 receptor = Histamine H1 receptor (Homo sapiens, UniProt P35367); assay: Binding affinity for the human Histamine H1 Receptor
Histamine H3 receptor = Histamine H3 receptor (Rattus norvegicus, UniProt Q9QYN8); assay: Binding affinity for the rat cortical Histamine H3 receptor
Histamine H2 receptor = Histamine H2 receptor (Homo sapiens, UniProt P25021); assay: Binding affinity for the human Histamine H2 receptor
Chain of Histamine H2 receptor (P25021 whole entry): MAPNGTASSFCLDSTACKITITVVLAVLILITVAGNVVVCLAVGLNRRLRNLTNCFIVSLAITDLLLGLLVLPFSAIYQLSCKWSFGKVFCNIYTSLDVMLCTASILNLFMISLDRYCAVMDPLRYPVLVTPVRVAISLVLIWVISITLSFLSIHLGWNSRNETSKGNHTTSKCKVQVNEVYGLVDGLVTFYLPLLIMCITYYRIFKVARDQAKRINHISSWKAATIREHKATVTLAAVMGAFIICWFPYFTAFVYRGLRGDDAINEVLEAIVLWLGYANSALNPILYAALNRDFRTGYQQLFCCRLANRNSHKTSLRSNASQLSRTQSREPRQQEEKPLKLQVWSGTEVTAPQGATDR

Chain of Histamine H3 receptor (Q9QYN8 whole entry): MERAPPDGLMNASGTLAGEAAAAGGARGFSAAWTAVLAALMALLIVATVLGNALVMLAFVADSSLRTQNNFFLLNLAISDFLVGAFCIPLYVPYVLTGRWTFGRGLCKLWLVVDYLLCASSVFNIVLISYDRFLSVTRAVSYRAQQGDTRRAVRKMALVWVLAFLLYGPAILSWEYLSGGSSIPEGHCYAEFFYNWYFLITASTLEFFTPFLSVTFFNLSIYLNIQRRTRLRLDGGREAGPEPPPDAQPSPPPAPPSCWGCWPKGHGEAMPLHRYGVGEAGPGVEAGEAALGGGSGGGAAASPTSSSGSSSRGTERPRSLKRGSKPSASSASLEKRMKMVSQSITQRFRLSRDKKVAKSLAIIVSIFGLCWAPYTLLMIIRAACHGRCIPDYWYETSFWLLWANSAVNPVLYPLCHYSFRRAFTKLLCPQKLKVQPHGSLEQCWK
Chain of Histamine H1 receptor (P35367 whole entry): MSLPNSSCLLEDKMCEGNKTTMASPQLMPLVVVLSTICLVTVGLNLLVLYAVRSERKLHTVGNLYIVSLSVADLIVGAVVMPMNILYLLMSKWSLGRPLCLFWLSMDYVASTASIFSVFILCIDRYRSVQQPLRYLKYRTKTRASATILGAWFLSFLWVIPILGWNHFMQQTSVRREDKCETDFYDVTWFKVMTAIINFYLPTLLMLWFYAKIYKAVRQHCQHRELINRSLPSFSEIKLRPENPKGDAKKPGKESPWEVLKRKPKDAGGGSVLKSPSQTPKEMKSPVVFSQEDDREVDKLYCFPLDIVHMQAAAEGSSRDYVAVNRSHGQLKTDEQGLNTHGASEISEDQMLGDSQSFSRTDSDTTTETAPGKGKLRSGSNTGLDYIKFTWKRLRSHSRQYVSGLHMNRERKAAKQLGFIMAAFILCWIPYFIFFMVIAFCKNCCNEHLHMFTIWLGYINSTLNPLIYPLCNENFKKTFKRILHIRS

| SMILES | Ki (Histamine H1 receptor) | Ki (Histamine H3 receptor) | Ki (Histamine H2 receptor) |
| --- | --- | --- | --- |
| CCOC(=O)N1CCN(CCCOc2ccc(C(=O)C3CCCCC3)cc2)CC1 | 603 nM | 25.1 nM | 7940 nM |
| CCCCCC(=O)c1ccc(OCCCN2CCNCC2)cc1 | 6030 nM | 26.9 nM | 14500 nM |
| C=C(C)C(=O)c1ccc(OCCCN2CCN(C(=O)OCC)CC2)cc1 | 977 nM | 55 nM | 22400 nM |
| CCCCCC(=O)c1ccc(OCCCN2CCN(CC(C)C)CC2)cc1 | 457 nM | 9.33 nM | 9550 nM |
| CCCCCC(=O)c1ccc(OCCCN2CCN(C(=O)c3ccccn3)CC2)cc1 | 417 nM | 52.5 nM | 18600 nM |
| CCOC(=O)N1CCN(CCCOc2ccc(C(=O)CC)cc2)CC1 | 1660 nM | 5.37 nM | 56200 nM |
| CCOC(=O)N1CCN(CCCOc2ccc(C(=O)c3ccc(F)cc3)cc2)CC1 | 209 nM | 67.6 nM | 42700 nM |
| CCCCCC(=O)c1ccc(OCCCN2CCN(C(=O)c3cccn3C)CC2)cc1 | 56.2 nM | 4.07 nM | 11700 nM |
| CCOC(=O)N1CCN(CCCOc2ccc(C(C)=O)cc2)CC1 | 2240 nM | 5.01 nM | 39800 nM |
| CCOC(=O)N1CCN(CCCOc2ccc(C(=O)C=C(C)C)cc2)CC1 | 355 nM | 38.9 nM | 21900 nM |
| CCCCCC(=O)c1ccc(OCCCN2CCN(C(=O)c3ccncc3)CC2)cc1 | 479 nM | 6.31 nM | 22400 nM |
| CCCCCC(=O)c1ccc(OCCCN2CCN(S(=O)(=O)c3ccc(C#N)cc3)CC2)cc1 | 13500 nM | 37.2 nM | 12300 nM |
| CCCCCC(=O)c1ccc(OCCCN2CCN(S(=O)(=O)C(C)C)CC2)cc1 | 11200 nM | 12.6 nM | 20900 nM |
| CCCCCC(=O)c1ccc(OCCCN2CCN(C(=O)c3ccc(C)s3)CC2)cc1 | 97.7 nM | 15.8 nM | 8130 nM |
| CCOC(=O)N1CCN(CCCOc2ccc(C(=O)/C=C/c3cccnc3)cc2)CC1 | 427 nM | 6.31 nM | 25100 nM |
| CCCCCC(=O)c1ccc(OCCCN2CCN(CCCC)CC2)cc1 | 661 nM | 13.5 nM | 7590 nM |
| CCCCCC(=O)c1ccc(OCCCC2CCNCC2)cc1 | – | 58900 nM | – |

| SMILES | Ki (Histamine H1 receptor) | Ki (Histamine H3 receptor) | Ki (Histamine H2 receptor) |
| --- | --- | --- | --- |
| CCOC(=O)N1CCN(CCCOc2ccc(C(=O)C3CC3)cc2)CC1 | 1410 nM | 4.68 nM | 79400 nM |
| CCCCCCCCC(=O)c1ccc(OCCCN2CCN(C(=O)OCC)CC2)cc1 | 501 nM | 7.94 nM | 2690 nM |
| CCOC(=O)N1CCN(CCCOc2ccc(C(=O)/C=C/c3ccc(OC)cc3)cc2)CC1 | 617 nM | 7.24 nM | 6760 nM |
| CCOC(=O)N1CCN(CCCOc2ccc(C(=O)c3cccc(F)c3F)cc2)CC1 | 1020 nM | 25.1 nM | 17400 nM |
| CCOC(=O)N1CCN(CCCOc2ccc(C(=O)c3cccc(C)c3)cc2)CC1 | 380 nM | 288 nM | 3720 nM |
| CCCCCC(=O)c1ccc(OCCCN2CCN(CCC)CC2)cc1 | 3390 nM | 27.5 nM | 27500 nM |
| CCCCCC(=O)c1ccc(OCCCN2CCN(Cc3nccs3)CC2)cc1 | 60.3 nM | 16.6 nM | 7080 nM |
| CCCCCC(=O)c1ccc(OCCCN2CCN(C(=O)c3occc3C)CC2)cc1 | 105 nM | 8.51 nM | 12900 nM |
| CCOC(=O)N1CCN(CCCOc2ccc(C(=O)Cc3ccccc3)cc2)CC1 | 933 nM | 69.2 nM | 12600 nM |
| CCCCCC(=O)c1ccc(OCCCN2CCN(C(=O)Cc3ccccc3)CC2)cc1 | 56.2 nM | 10 nM | 8910 nM |
| CCCCCC(=O)c1ccc(OCCCN2CCN(C(=O)c3ccccc3)CC2)cc1 | 288 nM | 36.3 nM | 12300 nM |
| CCOC(=O)N1CCN(CCCOc2ccc(C(=O)c3ccc(C(C)(C)C)cc3)cc2)CC1 | 562 nM | 13.2 nM | 1550 nM |
| CCOC(=O)N1CCN(CCCOc2ccc(C(=O)CC(C)C)cc2)CC1 | 933 nM | 7.24 nM | 69200 nM |
| CCOC(=O)N1CCN(CCCOc2ccc(C(=O)c3ccc(SC)cc3)cc2)CC1 | 447 nM | 58.9 nM | 6170 nM |
| CCCC(=O)c1ccc(OCCCN2CCN(C(=O)OCC)CC2)cc1 | 741 nM | 3.63 nM | 22400 nM |
| CCOC(=O)N1CCN(CCCOc2ccc(C(=O)c3ccc(OC)cc3)cc2)CC1 | 813 nM | 39.8 nM | 8320 nM |

Next, values leading:

| Ki (Histamine H1 receptor) | Ki (Histamine H3 receptor) | Ki (Histamine H2 receptor) | SMILES |
| --- | --- | --- | --- |
| 275 nM | 10 nM | 3720 nM | CCCCCC(=O)c1ccc(OCCCN2CCN(C(=O)OCC(C)C)CC2)cc1 |
| 562 nM | 3.72 nM | 2140 nM | CCCCCCCC(=O)c1ccc(OCCCN2CCN(C(=O)OCC)CC2)cc1 |
| – | 63.1 nM | – | CCCCCC(=O)c1ccc(OCCCN2CCCCC2)cc1 |
| 724 nM | 20.4 nM | 60300 nM | CCCCCC(=O)c1ccc(OCCCN2CCN(C(=O)c3cccnc3)CC2)cc1 |
| 3980 nM | – | 29500 nM | CCCCCC(=O)c1ccc(OCCCN2CCN(C(=O)C(C)C)CC2)cc1 |
| 1580 nM | 21.4 nM | 23400 nM | CCCCCC(=O)c1ccc(OCCCN2CCN(C(=O)NCC)CC2)cc1 |
| 575 nM | 20.4 nM | 1860 nM | CCCCCC(=O)c1ccc(OCCCN2CCN(C(=O)OCCCC)CC2)cc1 |
| 74.1 nM | 16.2 nM | 14800 nM | CCCCCC(=O)c1ccc(OCCCN2CCN(C(=O)c3cccs3)CC2)cc1 |
| 4170 nM | 5.89 nM | 17800 nM | CCCCCC(=O)c1ccc(OCCCN2CCN(C(=O)N3CCOCC3)CC2)cc1 |
| 4270 nM | 44.7 nM | 27500 nM | CCCCCC(=O)c1ccc(OCCCN2CCN(C(=O)c3cnco3)CC2)cc1 |
| 1100 nM | 11 nM | 22900 nM | CCCCCC(=O)c1ccc(OCCCN2CCN(C(=O)CSCC)CC2)cc1 |
| 21400 nM | 57.5 nM | 24500 nM | CCCCCC(=O)c1ccc(OCCCN2CCN(C(=O)C(C)(C)O)CC2)cc1 |
| 1050 nM | 7.41 nM | 14800 nM | CCCCCC(=O)c1ccc(OCCCN2CCN(C(=O)N3CCCC3)CC2)cc1 |
| 355 nM | 3.16 nM | 10200 nM | CCCCCC(=O)c1ccc(OCCCN2CCN(C(=O)C3CCC3)CC2)cc1 |
| 309 nM | 5.01 nM | 17800 nM | CCCCCC(=O)c1ccc(OCCCN2CCN(C(=O)OC(C)C)CC2)cc1 |
| 871 nM | 6.46 nM | 22900 nM | CCCCCC(=O)c1ccc(OCCCN2CCN(C(=O)CCC)CC2)cc1 |
| 26300 nM | 21.4 nM | 83200 nM | CCCCCC(=O)c1ccc(OCCCN2CCN(S(C)(=O)=O)CC2)cc1 |
| 275 nM | 1.38 nM | 12600 nM | CCCCCC(=O)c1ccc(OCCCN2CCN(C(=O)OCC)CC2)cc1 |
| 2040 nM | 18.2 nM | 46800 nM | CCCCCC(=O)c1ccc(OCCCN2CCN(C(=O)c3cnccn3)CC2)cc1 |
| 79.4 nM | 29.5 nM | 19500 nM | CCCCCC(=O)c1ccc(OCCCN2CCN(C(=O)c3sccc3Cl)CC2)cc1 |
| 2240 nM | 15.8 nM | 18600 nM | CCCCCC(=O)c1ccc(OCCCN2CCN(CC3CC3)CC2)cc1 |
| 1070 nM | 3.02 nM | 12000 nM | CCCCCC(=O)c1ccc(OCCCN2CCN(C(=O)OC)CC2)cc1 |
| 1200 nM | 9.55 nM | 11200 nM | CCCCCC(=O)c1ccc(OCCCN2CCN(C(=O)NC(C)C)CC2)cc1 |
| 1910 nM | 3.16 nM | 31600 nM | CCCCCC(=O)c1ccc(OCCCN2CCN(C(=O)CC)CC2)cc1 |
| 525 nM | 4.47 nM | 19500 nM | CCCCCC(=O)c1ccc(OCCCN2CCN(C(=O)c3c[nH]cn3)CC2)cc1 |
| 1780 nM | 2.14 nM | 31600 nM | CCCCCC(=O)c1ccc(OCCCN2CCN(C(=O)C3CC3)CC2)cc1 |
| 398 nM | 10.5 nM | 20000 nM | CCCCCC(=O)c1ccc(OCCCN2CCN(C(=O)c3ccco3)CC2)cc1 |
